Laboratory results as given in PubChem BioAssay (NCI).
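Briefly, cells in 96-well plates were exposed to five compound concentrations for 48 h, and endpoints were estimated by linear interpolation. GI50 = concentration required for 50% inhibition of growth. At the TGI there is no net growth.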

Experiments:
Assay in all cases: NCI-60 cell line screen, 48 h
EKVX NSCLC = tested on: EKVX NSCLC
HL-60(TB) leukemia = tested on: HL-60(TB) leukemia
HT29 colon = tested on: HT29 colon
IGROV1 ovarian = tested on: IGROV1 ovarian
OVCAR-4 ovarian = tested on: OVCAR-4 ovarian
RXF 393 renal = tested on: RXF 393 renal
SF-295 CNS = tested on: SF-295 CNS
SNB-19 CNS = tested on: SNB-19 CNS
MCF7 breast = tested on: MCF7 breast
MDA-MB-231 breast = tested on: MDA-MB-231 breast

SMILES | TGI (EKVX NSCLC) [µM] | TGI (HL-60(TB) leukemia) [µM] | TGI (HT29 colon) [µM] | TGI (IGROV1 ovarian) [µM] | TGI (OVCAR-4 ovarian) [µM] | TGI (RXF 393 renal) [µM] | TGI (SF-295 CNS) [µM] | TGI (SNB-19 CNS) [µM] | TGI (MCF7 breast) [µM] | GI50 (EKVX NSCLC) [µM] | GI50 (HL-60(TB) leukemia) [µM] | GI50 (HT29 colon) [µM] | GI50 (IGROV1 ovarian) [µM] | GI50 (MCF7 breast) [µM] | GI50 (MDA-MB-231 breast) [µM] | TGI (MDA-MB-231 breast) [µM] | GI50 (OVCAR-4 ovarian) [µM] | GI50 (SF-295 CNS) [µM] | GI50 (SNB-19 CNS) [µM]
O=C(Cc1nc2ccccc2s1)Nc1cccc(C(F)(F)F)c1 | 38.9 | 17.8 | 33.9 | 25.9 | 30.3 | 32.3 | 30.7 | 32.3 |  |  |  |  |  |  |  |  |  |  | 
NCCCNCCCCN(CCCN)/[N+]([O-])=N\O | > 100 | > 100 | > 100 | > 100 | > 100 | > 100 | > 100 | > 100 |  |  |  |  |  |  |  |  |  |  | 
COc1ccc(/C=c2\sc3n(c2=O)C(N)=C(C#N)C(c2ccc(OC)cc2)C=3c2nc3ccccc3[nH]2)cc1 (stereo not drawn) | 56.2 | > 100 |  | > 100 | > 100 |  |  | > 100 |  |  |  |  |  |  |  |  |  |  | 
Clc1ccc(C2SCc3nc4ccccc4n32)cc1Cl (stereo not drawn) | 28.1 | 40.7 | 29.9 | 38.8 | 25.8 | 15.7 | 24.2 | 22.4 |  |  |  |  |  |  |  |  |  |  | 
COc1cc(COC(=O)N(CC(=O)O)c2ccccc2)c([N+](=O)[O-])cc1OC | > 100 | > 100 | > 100 | > 100 |  | > 100 | > 100 | > 100 | > 100 |  |  |  |  |  |  |  |  |  | 
CCCCCCCCCCCCCP(=O)(O)OCC | > 100 | > 100 | > 100 | > 100 | > 100 | > 100 | > 100 | > 100 |  |  |  |  |  |  |  |  |  |  | 
C=C(Br)N(CC)CC | > 100 | > 100 | > 100 | > 100 | > 100 | > 100 | > 100 | > 100 |  |  |  |  |  |  |  |  |  |  | 
C1=CC=C2NCCCNC3=CC=CC=CC3=NCCCN=C2C=C1 | > 100 | > 100 | > 100 | > 100 | > 100 |  | > 100 | > 100 |  |  |  |  |  |  |  |  |  |  | 
COc1cc2c(cc1C)NC(=O)/C2=C\c1cccc(Oc2ccccc2)c1 | 41.7 | 26.8 | 26.1 | 29.4 | 35.6 |  | 31.8 | 28.1 | 24 | 15.4 | 11.9 | 12.1 | 14.5 | 6.73 | 16.3 | 37.4 | 14.4 | 16.8 | 14.3
COc1cc(Nc2ccnc(NCCCNc3ccnc4cc(Cl)ccc34)n2)cc(OC)c1 |  | 4.54 | 3.62 | 5.73 | 5.1 |  | 2.78 | 8 | 3 |  | 2.04 | 1.33 | 2.23 | 1.28 | 1.5 | 3.16 | 1.58 | 1.37 | 2.32
COC(=O)CCC(=O)CC(=O)C(=O)Nc1c(Cl)cc([N+](=O)[O-])cc1Cl | > 100 | > 100 | > 100 | > 100 | > 100 | > 100 | > 100 | > 100 |  |  |  |  |  |  |  |  |  |  | 
CCc1cccc(C(C)C)c1NC(=O)C(=O)C(CC(=O)Nc1ccc(Cl)c(Cl)c1)C(=O)OC (stereo not drawn) | > 100 | > 100 | > 100 | > 100 | > 100 | > 100 | > 100 | > 100 |  |  |  |  |  |  |  |  |  |  | 
C[C@]1(CO)CCC[C@@]2(C)C1CC[C@H]1CC3C[C@]12CC[C@]3(C)O (stereo partly drawn) |  | 41.1 | > 100 |  | > 100 | > 100 | > 100 | > 100 |  |  |  |  |  |  |  |  |  |  | 
CCOC(=O)C1=C(C)N(c2ccc(C)cc2)C2=C(C(=O)N(c3ccccc3)C2c2ccccc2)C1c1ccccc1 (stereo not drawn) | > 25 | > 25 | > 25 | > 25 | > 25 | > 25 | > 25 | > 25 |  |  |  |  |  |  |  |  |  |  | 
CN(C)CCNC(=O)c1cccc2c1nc(-c1ccccc1)c1ccccc12 | 25.7 | 8 | 13.1 | 18.2 | 17.7 | 9.43 | 18.7 | 23.8 |  |  |  |  |  |  |  |  |  |  | 
Cc1cc(C)nc(NS(=O)(=O)c2ccc(Nc3c4ccc(Cl)cc4nc4c(C(=O)Nc5ccc(S(N)(=O)=O)cc5)cccc34)cc2)n1 | 48.8 |  | 52.4 |  | 55.5 | 26.7 | 36.9 | 93.9 |  |  |  |  |  |  |  |  |  |  | 
O=C(CCC(=O)C(C(=O)c1ccccc1)c1ccccc1)Nc1cccc(C(F)(F)F)c1 (stereo not drawn) | > 100 | > 100 | > 100 | > 100 | > 100 |  | > 100 | > 100 |  |  |  |  |  |  |  |  |  |  | 
COc1cc2c3c(c1OC)-c1c(ccc4c1OCO4)CC3(C#N)N(C(=O)c1ccccc1)CC2 (stereo not drawn) | > 100 | > 100 | > 100 | > 100 | 59 | > 100 | > 100 | > 100 |  |  |  |  |  |  |  |  |  |  | 
